Source: patent US20220372585A1, “Sensors for Aromatic Compounds and Methods of Making and Using Same” (Washington University, priority 2021, published 2022)
Where two headings read alike, the source gives them in different places.

Legend:
TrpR variant OD = target: T1, TrpR variant OD (Escherichia coli, UniProt P0A881, A80L/G78C/I79C/K72S/T83R); test: TrpR OD variant with synthetic Ptrp promoter, repression of GFP expression; format: cell-based, E. coli
T1 construct: trpR (OD); expressed in transfected cells; host or cells: E. coli Nissle 1917 (EcN), genomic trpR knocked out; plasmid pMBA103 (P17-trpR(OD))
Description: (§1) Among the various aspects of the present disclosure is the provision of systems and methods for detecting aromatic compounds. An aspect of the present disclosure provides for a method of protein engineering (e.g., a regulator protein) comprising: mutagenizing specific amino acids in and around a ligand-binding site of a protein, wherein the mutagenizing enables changes in ligand-protein binding specificity while maintaining protein-DNA interaction and thus downstream gene expression control; and/or linking ligand-protein binding to output response. An aspect of the present disclosure provides for an engineered molecular sensor. […] In some embodiments, the engineered regulator protein or the ligand-protein binding site or a sequence encoding the engineered regulator protein or the ligand-protein binding site of the engineered regulator protein is at least about 80% identical to a WT regulator protein or a WT regulator ligand-protein binding site; or a sequence encoding the engineered regulator protein or ligand binding site thereof is at least about 80% identical to a sequence encoding the WT regulator protein or the WT regulator ligand-protein binding site; or functional fragment thereof, the engineered regulator protein having ligand binding activity. […]

TrpR variant O1 = target: T2, TrpR variant O1 (Escherichia coli, UniProt P0A881, A80R/G78N/I79W/K72S/T83K); test: TrpR O1 variant with synthetic Ptrp promoter, repression of GFP expression; format: cell-based, E. coli
T2 construct: trpR (O1); expressed in transfected cells; host or cells: E. coli Nissle 1917 (EcN), genomic trpR knocked out; plasmid pMBA173 (P17-trpR(O1))
Description: as §1

WT TrpR = target: T3, WT TrpR (Escherichia coli, UniProt P0A881); test: WT TrpR system, repression of GFP expression; format: cell-based, E. coli
T3 construct: trpR (WT); expressed in transfected cells; host or cells: E. coli Nissle 1917 (EcN), genomic trpR knocked out; plasmid pMBA035 (P17-trpR)
Description: Among the various aspects of the present disclosure is the provision of systems and methods for detecting aromatic compounds. An aspect of the present disclosure provides for a method of protein engineering (e.g., a regulator protein) comprising: mutagenizing specific amino acids in and around a ligand-binding site of a protein, wherein the mutagenizing enables changes in ligand-protein binding specificity while maintaining protein-DNA interaction and thus downstream gene expression control; and/or linking ligand-protein binding to output response. An aspect of the present disclosure provides for an engineered molecular sensor. […] In some embodiments, the engineered regulator protein or the ligand-protein binding site or a sequence encoding the engineered regulator protein or the ligand-protein binding site of the engineered regulator protein is at least about 80% identical to a WT regulator protein or a WT regulator ligand-protein binding site; or a sequence encoding the engineered regulator protein or ligand binding site thereof is at least about 80% identical to a sequence encoding the WT regulator protein or the WT regulator ligand-protein binding site; or functional fragment thereof, the engineered regulator protein having ligand binding activity. In some embodiments, the engineered molecular sensor is optionally genomically integrated into a microorganism, optionally selected from a probiotic or is a purified cell-free sensor. In some embodiments, the engineered regulator protein or enzyme is an engineered TrpR, TyrR, TynA, or FeaR protein. […] In some embodiments, the engineered regulator protein is an engineered TrpR and is a tryptophan (Trp)-, 5-hydroxytryptophan (5-HTP)-, or tryptamine (Trpta)-specific sensor. In some embodiments, the engineered regulator protein or enzyme is an engineered TrpR, TyrR, TynA, or FeaR, and/or wherein the engineered TrpR, TyrR, TynA, or FeaR comprises at least one mutation to a ligand-protein binding site having specific amino acid binding activity. […]

[1] = test system: wild-type TynA and A81L FeaR; test: microbe, parasite or virus in culture; format: cell-based, E. coli MG1655; settings: A81L FeaR; 5 h; FIG. 24
Procedure: (§2) Flow cytometry was performed as previously described. […] Cytometry data was gated by forward and side scatter.

[2] = test system: wild-type TynA with A81P FeaR; test: microbe, parasite or virus in culture; format: cell-based, E. coli MG1655; settings: A81P FeaR; 5 h and 24 h; FIG. 25A-B
Procedure: as §2

[3] = test system: wild-type TynA with M83N FeaR; test: PtynA-GFP reporter, wild-type TynA with M83N FeaR (pCX073); format: cell-based, E. coli MG1655; settings: pCX008, pCX073, FIG. 6E, 24 h
Procedure: as §2

TynA-FeaR system = test: microbe, parasite or virus in culture; settings: for EC50: Escherichia coli, read-out: KA (half maximal constant)
Procedure: To develop sensors for aromatic amines, the TynA-FeaR system was first characterized in EcN. A sensor plasmid was constructed, which consisted of constitutively expressed TynA and FeaR from E. coli MG1655, and a reporter plasmid, which consisted of GFP under the control of PtynA (see e.g., FIG. 3B). […] Next, the sensitivity and selectivity to different ligands was characterized.
For fluorescence-based quantification, single colonies were transferred to 5 mL LB medium (VWR, Radnor, Pa., USA) in 14 mL round bottom tubes and incubated overnight at 250 rpm and 37° C. Unless otherwise specified, experimental cultures were prepared by diluting overnight cultures 100× into 0.6 mL M9 minimal medium supplemented with 1 mM MgSO4, […]), and 2% w/v glycerol as well as the respective ligands (DA, PEA, Tyra, and Trypta) in 2 mL 96-deep well plates. Cultures were grown for 24 h at 37° C. and 250 rpm. After 5 h and 24 h of incubation, samples were obtained from the cultures for flow cytometry analysis.
Flow cytometry was performed as previously described. Culture samples were collected and diluted to a final OD600 of ˜0.005-0.01 in […] filtered phosphate-buffered saline supplemented with 2 mg/ml kanamycin in 96-well assay microplates (U-bottom, REF-353910 from BD Biosciences, San Jose, Calif., USA). The fluorescence of the samples was measured using a Millipore Guava EasyCyte High Throughput flow cytometer with a 488 nm excitation laser and 512/18 nm emission filter. Cytometry data was gated by forward and side scatter. FlowJo (TreeStar Inc.) was used to obtain the arithmetic mean of the fluorescence distribution. The averages of the arithmetic means were calculated from three biological replicates. The average fluorescence of the non-fluorescent wild-type cell was subtracted from each sample to obtain the final fluorescence (au) values (Equation 2). To obtain the relative fluorescence in FIG. 6A-FIG. 6C, fluorescence values for each variant were normalized to the fluorescence of the wild-type sensor using Equation 3.
The Hill equation (Equations 4 and 5) was used to fit lines to the fluorescence data. The model was fit to the experimentally collected data by minimizing the root mean square error (RMSE; Equation 6).

[4] = test system: TynA-KP with FeaR-KA I109N; test: GFP fluorescence from PtynA-MG with TynA-KP and FeaR-KA I109N; format: cell-based, Klebsiella aerogenes
Description: FIG. 32. […] Sensor system with PtynA-MG, TynA-KP and FeaR-KA was chosen as the wild type (WT) for further directed evolution. TynA-KP was employed to reduce the possible interference from DA during evolution processes. Values and error bars are the average and standard deviation of biological triplicate, respectively.
FIG. 33A-FIG. 33B. […] The expression of PtynA-MG was regulated by the TynA-KP with FeaR-KA I109N mutant. Points represent experimental data while lines represent the fitted curves. […] Values and error bars are the average and standard deviation of biological triplicate, respectively.

[5] = Sauerkraut, safe limit; cited from earlier work
[6] = test system: wild-type TynA with M83Q FeaR; format: cell-based, E. coli MG1655; settings: 24 h, FIG. 28A
Procedure: as §2

[7] = test system: wild-type TynA with W110C FeaR; format: cell-based, E. coli MG1655; settings: 24 h, FIG. 28D
Procedure: as §2

G494S TynA and A81S FeaR = format: cell-based, E. coli MG1655; settings: G494S TynA and A81S FeaR; 5 h and 24 h; FIG. 23A-B
Procedure: as §2

[8] = test system: G494S TynA with A81T FeaR; format: cell-based, E. coli MG1655; settings: G494S*; 5 h; FIG. 17A
Procedure: as §2

[9] = test system: wild-type TynA with W110S FeaR; format: cell-based, E. coli MG1655; settings: 24 h, FIG. 28C
Procedure: as §2

[10] = test system: wild-type TynA with L108T FeaR; format: cell-based, E. coli MG1655; settings: 24 h, FIG. 28B
Procedure: as §2

[11] = test system: wild-type TynA with A81T FeaR; format: cell-based, E. coli MG1655; settings: wild-type TynA; 1 mM, 24 h; FIG. 21
Procedure: as §2

[12] = test system: G415H TynA with wild-type FeaR; format: cell-based, E. coli MG1655; settings: G415H TynA + wild-type FeaR, pCX008, pCX015
Procedure: as §2

[13] = test system: G494S TynA with wild-type FeaR; format: cell-based, E. coli MG1655; settings: G494S TynA, wild-type FeaR; 5 h and 24 h; FIG. 18A-B
Procedure: as §2

[14] = wild-type TynA and FeaR, pCX008, pHJY022, FIG. 3D, 24 h induction
[15] = wild-type TynA and FeaR, pCX008, pHJY022, FIG. 14, 5 h induction
[16] = wild-type TynA + M83Q FeaR, pCX008, pCX083
[17] = wild-type TynA + W110C FeaR, pCX008, pCX117
[18] = wild-type TynA + W110S FeaR, pCX008, pCX116
[19] = wild-type TynA + L108T FeaR, pCX008, pCX099

In the case of `N[C@@H](Cc1c[nH]c2ccccc12)C(=O)O` [Trp, tryptophan], the fold repression (TrpR variant OD) is reported as “about 5 fold”, the fold repression (TrpR variant O1) is reported as “about 60 fold” and the “fold repression of GFP expression” value (WT TrpR) is reported as 120 fold.

For `NCCc1ccc(O)cc1` [Tyramine, tyramine], the response [1] was “lack of response”, the response [2] was “lack of response” and the Fmax [3] was 158. The Fmin [3] was 1.5, the “n (Hill coefficient)” value [3] was 12 and the EC50 (TynA-FeaR system; 5 h) was 37 µM. For the same compound, the EC50 (TynA-FeaR system; 24 h) was 77 µM, the Fmin (TynA-FeaR system; [14]) was 4.4 and the “n (Hill coefficient)” value (TynA-FeaR system; [14]) was 5. For the same compound, the Fmax (TynA-FeaR system; [15]) was 311, the Fmin (TynA-FeaR system; [15]) was 10.6 and the “n (Hill coefficient)” value (TynA-FeaR system; [15]) was 1.6. For the same compound, the response ([4]; FeaR-KA I109N, 5 h and 24 h, FIG. 33A-B) was “lack of response”, the induction of fluorescence ([4]; I109N variant, 0.5 mM, 24 h, FIG. 32) was “not” and the Concentration [5] was 120 µM. For the same compound, the response ([6]; M83Q FeaR) was “lack of response”, the Fmax [6, 16] was 55 and the Fmin [6, 16] was 0.4. For the same compound, the “n (Hill coefficient)” value [6, 16] was 8.4, the response ([7]; W110C FeaR) was “lack of response” and the Fmax [7, 17] was 148. For the same compound, the Fmin [7, 17] was 0.9, the “n (Hill coefficient)” value [7, 17] was 9.7 and the response (G494S TynA and A81S FeaR) was “lack of response”. The response [8] was “lack of response”, the response ([9]; W110S FeaR) was “lack of response” and the Fmax [9, 18] was 127. The Fmin [9, 18] was 1.5, the “n (Hill coefficient)” value [9, 18] was 9.8 and the response ([10]; L108T FeaR) was “lack of response”. The Fmax [10, 19] was 78, the Fmin [10, 19] was 1.8 and the “n (Hill coefficient)” value [10, 19] was 1.6. The “effect of the A81T FeaR mutation on the response of the sensor” value [11] was “insignificant impact”, the Fmax ([12]; FIG. 4D, 24 h) was 226 and the Fmin ([12]; FIG. 4D, 24 h) was 0. For the same compound, the “n (Hill coefficient)” value ([12]; FIG. 4D, 24 h) was 0.9, the Fmax ([12]; FIG. 17B, 5 h) was 152 and the Fmin ([12]; FIG. 17B, 5 h) was 0. The “n (Hill coefficient)” value ([12]; FIG. 17B, 5 h) was 0.8 and the response [13] was “lack of response”.
